One data set concerns HBV. As to the kind of experiment: Anti-HBV activity: intracellular HBV DNA by real-time PCR in HepG2.117 cell line. It counts as cell-based, Hepatitis B virus. The note with it: Hepatitis B virus, read-out: HBV-AVE-HepG2.117 EC50 (μM, mean value). The procedure: The anti HBV activity was measured using the HepG2.117 cell line, a stable, inducibly HBV producing cell line, which replicates HBV in the absence of doxicycline (Tet-off system). The HepG2 cell line is available from ATCC® under number HB-8065. Transfection of the HepG2 cell line can be as described in Sun and Nassal 2006 Journal of Hepatology 45 (2006) 636-645 “Stable HepG2- and Huh7-based human hepatoma cell lines for efficient regulated expression of infectious hepatitis B virus”.
For the antiviral assay, HBV replication was induced, followed by a treatment with serially diluted compound in 96-well plates. After 3 days of treatment, the antiviral activity was determined by quantification of intracellular HBV DNA using real-time PCR and an HBV specific primer set and probe.
Background: Quantitative PCR measures a nucleic acid by following its amplification.

A short description of data set [1]: Cytotoxicity in HepG2.117 cells, ATPlite Luminescence Assay. As to conditions: human, incubated for 3 days, mean value, read-out: TOX-HepG2.117 CC50 (μM, mean value). It counts as cell-based, human. How it is done:
Cytotoxicity of the compounds was tested using HepG2 or HepG2.117 cells, incubated for 3 days in the presence of compounds. The viability of the cells was assessed using the PERKIN ELMER ATPlite Luminescence Assay System.”
Background: In ATP-based viability assays light output follows the ATP content of the culture.

The mark [2] stands for this setting: 72 h, HepG2.117 cells, 3 days of treatment, intracellular HBV DNA by real-time PCR, mean value.

Like-named read-outs stand apart in the source and are kept apart here.

As a reminder, the EC50 is the concentration that produces a half-maximal response. Broadly, the CC50 is the concentration at which the toxic effect on the cells reaches its halfway point.

As to `C[C@@H]1Cc2nn3c(c2CN1C(=O)c1ccc(Cl)c(Cl)c1)C(=O)N([C@H](C)c1ccc(C#N)cc1)CC3` (relative stereo) [C88*R], the EC50 in the data set with HBV (setting [2]) was 0.076 µM. Further, the CC50 at 3 days in data set [1] was greater than 50 µM.

As for `C[C@@H]1Cc2nn3c(c2CN1C(=O)c1ccc(Cl)c(Cl)c1)C(=O)N([C@@H](C)c1ccc(C#N)cc1)CC3` (relative stereo) [C88*S], the EC50 in the data set with HBV (setting [2]) was 0.023 µM. Also, in data set [1], the CC50 at 3 days was greater than 50 µM.

As to `C[C@@H]1Cc2nn3c(c2CN1C(=O)c1ccc(Cl)c(Cl)c1)C(=O)N([C@H](C)c1ccc(C(F)(F)F)cc1)CC3` (relative stereo) [C105*R], the EC50 in the data set on HBV (setting [2]) came out at 0.059 µM. The CC50 at 3 days in data set [1] was 14.6 µM.

`C[C@@H]1Cc2nn3c(c2CN1C(=O)c1ccc(Cl)c(Cl)c1)C(=O)N([C@@H](C)c1ccc(C(F)(F)F)cc1)CC3` (relative stereo) [C105*S]: the concentration giving a half-maximal response (EC50) in the data set with HBV (setting [2]) was 0.297 µM. For the same molecule, the CC50 at 3 days in data set [1] was greater than 50 µM.

In the case of `C[C@@H]1Cc2nn3c(c2CN1C(=O)c1ccc(Cl)c(Cl)c1)C(=O)N([C@@H](C)c1ccccc1C(F)(F)F)CC3` (relative stereo) [C123*R], the concentration giving a half-maximal response (EC50) with HBV (setting [2]) turned out to be 0.174 µM. In addition, the half-maximal cytotoxic concentration (CC50) at 3 days in data set [1] worked out at 20 µM.

Turning to `C[C@@H]1Cc2nn3c(c2CN1C(=O)c1ccc(Cl)c(Cl)c1)C(=O)N([C@H](C)c1ccccc1C(F)(F)F)CC3` (relative stereo) [C123*S], in the data set on HBV (setting [2]), the EC50 stood at 0.517 µM. Also, the CC50 at 3 days in data set [1] was determined as 19.2 µM.

Take `C[C@@H]1Cc2nn3c(c2CN1C(=O)c1ccc(Cl)c(Cl)c1)C(=O)N([C@H](C)c1c[nH]nn1)CC3` (single isomer, unassigned) [Compound 31, (3R)-2-(3,4-Dichlorobenzoyl)-3-methyl-9-[(1*R)-1-(1H-1,2,3-triazol-4-yl)ethyl]-1,2,3,4,8,9-hexahydropyrido[4′,3′:3,4]pyrazolo[1,5-a]pyrazin-10(7H)-one]: the EC50 with HBV (setting [2]) was found to be 0.075 µM. Besides, the CC50 at 3 days in data set [1] was greater than 50 µM.

Regarding `C[C@@H]1Cc2nn3c(c2CN1C(=O)c1ccc(Cl)c(Cl)c1)C(=O)N([C@@H](C)c1c[nH]nn1)CC3` (single isomer, unassigned) [Compound 32, (3R)-2-(3,4-Dichlorobenzoyl)-3-methyl-9-[(1*S)-1-(1H-1,2,3-triazol-4-yl)ethyl]-1,2,3,4,8,9-hexahydropyrido[4′,3′:3,4]pyrazolo[1,5-a]pyrazin-10(7H)-one], in the data set with HBV (setting [2]), the EC50 amounted to 0.332 µM. Besides, the CC50 at 3 days in data set [1] is greater than 50 µM.

On to `CN1O[C@@H](CO)Cn2nc3c(c2C1=O)CN(C(=O)c1ccc(Cl)c(Cl)c1)CC3` (single isomer, unassigned) [Compound 45, (4*R)-10-(3,4-Dichlorobenzoyl)-4-(hydroxymethyl)-2-methyl-4,5,8,9,10,11-hexahydropyrido-[4′,3′:3,4]pyrazolo[5,1-d][1,2,5]oxadiazepin-1(2H)-one], for which the EC50 in the data set on HBV (setting [2]) is 0.192 µM. Moreover, the CC50 at 3 days in data set [1] is greater than 50 µM.

Turning to `CN1O[C@H](CO)Cn2nc3c(c2C1=O)CN(C(=O)c1ccc(Cl)c(Cl)c1)CC3` (single isomer, unassigned) [Compound 46, (4*S)-10-(3,4-Dichlorobenzoyl)-4-(hydroxymethyl)-2-methyl-4,5,8,9,10,11-hexahydropyrido-[4′,3′:3,4]pyrazolo[5,1-d][1,2,5]oxadiazepin-1(2H)-one], in the data set on HBV (setting [2]), the EC50 stood at 0.505 µM. In data set [1], the CC50 at 3 days was greater than 50 µM.

Regarding `O=C1NCCn2nc3c(c21)CN(C(=O)c1ccc(Cl)c(Cl)c1)CC3` [Compound 1, 2-(3,4-Dichlorobenzoyl)-1,2,3,4,8,9-hexahydropyrido[4′,3′:3,4]pyrazolo[1,5-a]pyrazin-10(7H)-one], in the data set on HBV (setting [2]), the EC50 was 9.63 µM. Besides, the 50% cytotoxic concentration (CC50) at 3 days in data set [1] was greater than 50 µM.

For `O=C(c1ccc(Cl)c(Cl)c1)N1CCc2nn3c(c2C1)C(=O)N(Cc1ccccc1)CC3` [Compound 3, 9-Benzyl-2-(3,4-dichlorobenzoyl)-1,2,3,4,8,9-hexahydropyrido[4′,3′:3,4]pyrazolo[1,5-a]pyrazin-10(7H)-one], in the data set on HBV (HepG2.117, 72 h), the EC50 was found to be 0.188 µM. Also, in data set [1], the cytotoxic concentration (CC50) at 3 days came to 25.3 µM.

Take `COc1ccc(CN2CCn3nc4c(c3C2=O)CN(C(=O)c2ccc(Cl)c(Cl)c2)CC4)cc1` [Compound 4, 2-(3,4-Dichlorobenzoyl)-9-[(4-methoxyphenyl)methyl]-1,2,3,4,8,9-hexahydropyrido[4′,3′:3,4]-pyrazolo[1,5-a]pyrazin-10(7H)-one]: the concentration giving a half-maximal response (EC50) in the data set with HBV (setting [2]) was determined as 0.091 µM. Further, the CC50 at 3 days in data set [1] worked out at 17.9 µM.

As to `CC(c1ccncc1)N1CCn2nc3c(c2C1=O)CN(C(=O)c1ccc(Cl)c(Cl)c1)CC3` (centres unmarked) [Compound 5, 2-(3,4-Dichlorobenzoyl)-9-[1-(pyridin-4-yl)ethyl]-1,2,3,4,8,9-hexahydropyrido[4′,3′:3,4-]pyrazolo[1,5-a]pyrazin-10(7H)-one], in the data set on HBV (setting [2]), the concentration giving a half-maximal response (EC50) was found to be 0.213 µM. Further, the CC50 at 3 days in data set [1] is greater than 50 µM.

`O=C(c1ccc(Cl)c(Cl)c1)N1CCc2nn3c(c2C1)C(=O)N(Cc1nccs1)CC3` [Compound 7, 2-(3,4-Dichlorobenzoyl)-9-[(1,3-thiazol-2-yl)methyl]-1,2,3,4,8,9-hexahydropyrido[4′,3′:3,4]-pyrazolo[1,5-a]pyrazin-10(7H)-one]: the EC50 with HBV (setting [2]) stood at 0.399 µM. Further, the CC50 at 3 days in data set [1] was greater than 50 µM.

Take `O=C(c1ccc(Cl)c(Cl)c1)N1CCc2nn3c(c2C1)C(=O)N(Cc1c[nH]c2ccccc12)CC3` [Compound 8, 2-(3,4-Dichlorobenzoyl)-9-[(1H-indol-3-yl)methyl]-1,2,3,4,8,9-hexahydropyrido[4′,3′:3,4]-pyrazolo[1,5-a]pyrazin-10(7H)-one]: in the data set on HBV (setting [2]), the EC50 is less than 0.039 µM. The CC50 at 3 days in data set [1] was 10.8 µM.

In the case of `O=C(c1ccc(Cl)c(Cl)c1)N1CCc2nn3c(c2C1)C(=O)N(Cc1cccc2[nH]ccc12)CC3` [Compound 9, 2-(3,4-Dichlorobenzoyl)-9-[(1H-indol-4-yl)methyl]-1,2,3,4,8,9-hexahydropyrido[4′,3′:3,4]-pyrazolo[1,5-a]pyrazin-10(7H)-one], in the data set with HBV (setting [2]), the EC50 was determined as 0.054 µM. Besides, the CC50 at 3 days in data set [1] is 16.4 µM.

With `O=C(c1ccc(Cl)c(Cl)c1)N1CCc2nn3c(c2C1)C(=O)N(Cc1ccc(OC(F)F)cc1)CC3` [Compound 10, 2-(3,4-Dichlorobenzoyl)-9-{[4-(difluoromethoxy)phenyl]methyl}-1,2,3,4,8,9-hexahydropyrido-[4′,3′:3,4]pyrazolo[1,5-a]pyrazin-10(7H)-one], in the data set with HBV (setting [2]), the EC50 worked out at 0.062 µM. Moreover, in data set [1], the half-maximal cytotoxic concentration (CC50) at 3 days is 7.26 µM.

As for `C[C@@H]1Cc2nn3c(c2CN1C(=O)c1ccc(Cl)c(Cl)c1)C(=O)N(Cc1ccc(OC(F)F)cc1)CC3` [Compound 13, (3R)-2-(3,4-Dichlorobenzoyl)-9-{[4-(difluoromethoxy)phenyl]methyl}-3-methyl-1,2,3,4,8,9-hexahydropyrido[4′,3′:3,4]pyrazolo[1,5-a]pyrazin-10(7H)-one], the concentration giving a half-maximal response (EC50) in the data set on HBV (setting [2]) was found to be 0.055 µM.

For `C[C@@H]1Cc2nn3c(c2CN1C(=O)c1ccc(Cl)c(Cl)c1)C(=O)N(Cc1cccc2c1ccn2C)CC3` [Example C120], the EC50 with HBV (setting [2]) stood at 0.047 µM.

In the case of `COc1ccc(CN2CCn3nc4c(c3C2=O)CN(C(=O)c2ccc(Cl)c(Cl)c2)[C@H](C)C4)cc1F` [Example C140], the EC50 in the data set with HBV (setting [2]) was found to be 0.032 µM.

For the molecule `COc1cc(CN2CCn3nc4c(c3C2=O)CN(C(=O)c2ccc(Cl)c(Cl)c2)[C@H](C)C4)ccc1OC(F)F` [Example C205], in the data set with HBV (setting [2]), the EC50 came out at 0.04 µM.

With `Cc1ccc(CN2CCn3nc4c(c3C2=O)CN(C(=O)c2ccc(Cl)c(Cl)c2)[C@H](C)C4)c(F)c1` [Example C206], in the data set on HBV (setting [2]), the EC50 came out at 0.038 µM.

These data come from US20220348592A1, “FUSED HETEROCYCLIC DERIVATIVES” (Janssen Sciences Ireland Unlimited Company, priority 2019, published 2022).
